Results: the supplement of paper PMC11208160

Experiment: recombinant UMI read abundance after kanamycin selection (control-corrected) (log10(CPM+1)); higher = more efficient recombination; extreme values may be limits of the assay; sequences stand for … in AGTGCAGAGAAAATCGGCCAGTTTTCTCTGCCTGCAGTCCGCATGCCGTGGGACCCCTTGGGTTCTAACCTGTTGCCTAGATTTATGCAGCGGACTGCCTTTCTCCCAAAGTGATAAACCGG…AGGTTGGTTTCACT; site = the 11-nt donor
Procedure, shortened: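 Each donor and donor-binding-loop pair was tracked by a 12-nt UMI on a plasmid carrying a promoterless kanamycin gene. With a second plasmid supplying a fixed target and T7-inducible IS621 bridge recombinase, the pool was plated in Escherichia coli on IPTG (0.07 mM) plus kanamycin or unselected. Sequencing of recombinant UMIs across the donor–target junction gave counts expressed as log10(CPM+1) after replicate averaging and control-derived scaling.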
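Note: IS621 bridge recombinase in Escherichia coli cells against a fixed T5 target plasmid.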

Sequence	recombinant UMI read abundance (log10)
CGATCATCATGGACCGGTTTTCCCGGTAATCCGTATTTGCG (site CGATCATCTCG)	2.32
AGAAAGACATGGACCGGTTTTCCCGGTAATCCGTATTTGCA (site AGCAAGACTTG)	1.59
TAGAGTACATGGACCGGTTTTCCCGGTAATCCGTATTTGCA (site TAGAATACTTG)	1.37
TCAGAGCCATGGACCGGTTTTCCCGGTAATCCGTATTTGCG (site TCAGAGGCTCG)	0.00861
CAATGATCATGGACCGGTTTTCCCGGTAATCCGTATTTGAA (site CAATGTTCTTT)	0.682
CTGTACCCATGGACCGGTTTTCCCGGTAATCCGTATTTGAG (site CTGTACCCTCT)	0.00463
TCTAATACATGGACCGGTTTTCCCGGTAATCCGTATTTGGC (site ACTAATACTGC)	0
AGCCTTTCATGGACCGGTTTTCCCGGTAATCCGTATTTGAC (site AGCCATTCTGT)	0
CCCTGTCCATGGACCGGTTTTCCCGGTAATCCGTATTTGCA (site CCCGGTCCTTG)	0
AGGAAGACATGGACCGGTTTTCCCGGTAATCCGTATTTGCG (site AGGAAGACTAG)	0.0723
CGAGCACCATGGACCGGTTTTCCCGGTAATCCGTATTTGGG (site CGAGTACCTCC)	0.0136
GTTAAGGCATGGACCGGTTTTCCCGGTAATCCGTATTTGAG (site GTTAAGGCTCT)	1.41
GTACGTACATGGACCGGTTTTCCCGGTAATCCGTATTTGAC (site GTATGTACTGT)	0.00913
ACCGTGACATGGACCGGTTTTCCCGGTAATCCGTATTTGCA (site ACCGTGACTTG)	2.4
GCGCAAACATGGACCGGTTTTCCCGGTAATCCGTATTTGCT (site GCGCAAACTAG)	1.59
TCCCTGACATGGACCGGTTTTCCCGGTAATCCGTATTTGGA (site TCCCTGACTTC)	0.0122
GACTTGACATGGACCGGTTTTCCCGGTAATCCGTATTTGCT (site CACTTGACTAG)	0.596
CGGACAGCATGGACCGGTTTTCCCGGTAATCCGTATTTGCT (site CGGACAGCTAG)	2.07
CACGGCCCATGGACCGGTTTTCCCGGTAATCCGTATTTGTG (site CACGGCCCTTA)	0.00311
CGGAATACATGGACCGGTTTTCCCGGTAATCCGTATTTGAT (site CGGAATCCTAA)	0
CGATAGACATGGACCGGTTTTCCCGGTAATCCGTATTTGTT (site CGATTGACTAA)	0.00602
ACGAAACCATGGACCGGTTTTCCCGGTAATCCGTATTTGGA (site ACGAAACCTTC)	0
AGAATGTCATGGACCGGTTTTCCCGGTAATCCGTATTTGGG (site AGAATGTCTCC)	2.01
ATGTAGGCATGGACCGGTTTTCCCGGTAATCCGTATTTGGT (site ATGTAGGCTGC)	1.73
CATGTTCCATGGACCGGTTTTCCCGGTAATCCGTATTTGTT (site CATGTTCCTAA)	0.678

Sequence	recombinant UMI read abundance (log10)
GATTATCCATGGACCGGTTTTCCCGGTAATCCGTATTTGCT (site GATTCTCCTAG)	0
AAGGACACATGGACCGGTTTTCCCGGTAATCCGTATTTGAG (site AAGGACACTCT)	2.09
GGTTCGTCATGGACCGGTTTTCCCGGTAATCCGTATTTGTT (site GGTACGTCTAA)	0.0147
TAGGATTCATGGACCGGTTTTCCCGGTAATCCGTATTTGCG (site TAGGATTCTCG)	2.94
AATCTGTCATGGACCGGTTTTCCCGGTAATCCGTATTTGAC (site AATTTGTCTGT)	0
CCCTTCTCATGGACCGGTTTTCCCGGTAATCCGTATTTGGG (site CCCTTCTCTCT)	0.0297
CGTGGCACATGGACCGGTTTTCCCGGTAATCCGTATTTGTT (site CGTGGCACTAA)	0.862
CATCAGTCATGGACCGGTTTTCCCGGTAATCCGTATTTGCA (site CATCAGTCTTG)	3.13
CTGGACACATGGACCGGTTTTCCCGGTAATCCGTATTTGCA (site CTGGAGACTTG)	0.00455
ATGCACGCATGGACCGGTTTTCCCGGTAATCCGTATTTGGG (site ACGCACGCTCC)	0.0179
GATAGGACATGGACCGGTTTTCCCGGTAATCCGTATTTGAC (site GATTGGACTGT)	0.386
GTGCATGCATGGACCGGTTTTCCCGGTAATCCGTATTTGAT (site GTGCATGCTAG)	0.649
CGATCCTCATGGACCGGTTTTCCCGGTAATCCGTATTTGGT (site CGATCCTCTAC)	1.74
TTAGCTACATGGACCGGTTTTCCCGGTAATCCGTATTTGTG (site TTAGCTGCTCA)	0.0109
GGCTTGGCATGGACCGGTTTTCCCGGTAATCCGTATTTGGT (site GGCTTGGCTAC)	0.216
GTAGTCGCATGGACCGGTTTTCCCGGTAATCCGTATTTGCG (site GTAGTCGCTCA)	0.421
GTTCGAGCATGGACCGGTTTTCCCGGTAATCCGTATTTGCA (site GTTCGAGCTTA)	1.19
ACTTGAACATGGACCGGTTTTCCCGGTAATCCGTATTTGAG (site ACTCGAACTCT)	0.999
ATGTGGGCATGGACCGGTTTTCCCGGTAATCCGTATTTGGC (site ATGTTGGCTGC)	0.0921
TAAGAAACATGGACCGGTTTTCCCGGTAATCCGTATTTGCT (site TAAGAAACTAG)	2.12
AGGACTACATGGACCGGTTTTCCCGGTAATCCGTATTTGAC (site AGGACTACTGC)	0.68
GCTATACCATGGACCGGTTTTCCCGGTAATCCGTATTTGTA (site GCTATACCTTA)	0.0042
CTGCCTACATGGACCGGTTTTCCCGGTAATCCGTATTTGAG (site CTTCCTACTCT)	0.12
ATTTATTCATGGACCGGTTTTCCCGGTAATCCGTATTTGAG (site ATTTATTCTCT)	1.61
ACATACTCATGGACCGGTTTTCCCGGTAATCCGTATTTGCA (site TCATACTCTTG)	2.8

Sequence	recombinant UMI read abundance (log10)
AAACTTGCATGGACCGGTTTTCCCGGTAATCCGTATTTGGA (site AAACTTGCTTC)	0.688
ATCCAAGCATGGACCGGTTTTCCCGGTAATCCGTATTTGAA (site ATCCAAGCTAT)	0.379
TCCCCAACATGGACCGGTTTTCCCGGTAATCCGTATTTGTT (site TCCCCAACTAA)	0.0153
ACTTATGCATGGACCGGTTTTCCCGGTAATCCGTATTTGGA (site AATTATGCTTC)	0.425
CTACTAACATGGACCGGTTTTCCCGGTAATCCGTATTTGGA (site CTACTAACTGC)	0
CTCCTACCATGGACCGGTTTTCCCGGTAATCCGTATTTGCT (site CTCCTACCTAG)	0
TAAGCAGCATGGACCGGTTTTCCCGGTAATCCGTATTTGCT (site AAAGCAGCTAG)	0.00963
ACATGCACATGGACCGGTTTTCCCGGTAATCCGTATTTGTC (site ACATGCACTGA)	2.06
ATACCGTCATGGACCGGTTTTCCCGGTAATCCGTATTTGGG (site ATACCGTCTCC)	0.0133
TCGAAGACATGGACCGGTTTTCCCGGTAATCCGTATTTGCA (site AGGAAGACTTG)	0.13
TAGGAATCATGGACCGGTTTTCCCGGTAATCCGTATTTGGG (site TAGGAATCTCG)	0
GTTACAACATGGACCGGTTTTCCCGGTAATCCGTATTTGGC (site GTTAAAACTGC)	0.0108
ACCTAGCCATGGACCGGTTTTCCCGGTAATCCGTATTTGCC (site ACCTAGCCTGG)	0
ACAGTATCATGGACCGGTTTTCCCGGTAATCCGTATTTGCA (site ACAATATCTTG)	2.8
CGGTGTCCATGGACCGGTTTTCCCGGTAATCCGTATTTGTT (site CGGTGTCCTAA)	0.0166
ACCTAGACATGGACCGGTTTTCCCGGTAATCCGTATTTGGG (site ACCTAGTCTCC)	0.0195
ACTAATACATGGACCGGTTTTCCCGGTAATCCGTATTTGGC (site TCTAATACTGC)	1.03
CTCTACCCATGGACCGGTTTTCCCGGTAATCCGTATTTGCT (site CTCTACCCTAG)	1.74
TACTTTACATGGACCGGTTTTCCCGGTAATCCGTATTTGCT (site TACTTTACTAG)	1.01
TCCTTCTCATGGACCGGTTTTCCCGGTAATCCGTATTTGGG (site TCCTTCTCTCC)	0.0162
CACAGCCCATGGACCGGTTTTCCCGGTAATCCGTATTTGTT (site CACAGCCCTAA)	0.97
TATTATGCATGGACCGGTTTTCCCGGTAATCCGTATTTGGA (site AATTATGCTTC)	0.364
GTTCGAGCATGGACCGGTTTTCCCGGTAATCCGTATTTGCA (site GTTCGAGCTTT)	0.391
GATTATCCATGGACCGGTTTTCCCGGTAATCCGTATTTGCT (site GGTTATCCTAG)	0
CGCATTTCATGGACCGGTTTTCCCGGTAATCCGTATTTGCC (site CGCATTTCTGG)	0
